Reference: patent US11324774B2, “Compositions of oral alkaline salts and metabolic acid inducers and uses thereof” (Augusta University Research Institute, Inc., priority 2018, dated 2022)

System: T-regulatory cells (FOXP3+ T-regs), TH17 cells
Test: Circulating T-regulatory and TH17 cells in rats
Type: in vivo
Conditions: rats, 4 days in drinking water

O=C([O-])CC(O)(CC(=O)[O-])C(=O)[O-].[Na+].[Na+].[Na+] [Na Citrate]
circulating anti-inflammatory T cells (FOXP3+ T-regs): no effect
